These results are taken from paper PMC5694528, “Human mass balance study and metabolite profiling of ^14C-niraparib, a novel poly(ADP-Ribose) polymerase (PARP)-1 and PARP-2 inhibitor, in patients with advanced cancer” (Investigational New Drugs, 2017).

Series [1] in a line: Metabolite profiling in plasma, urine and faeces by LC-LSC-MSn. In kind it is in vivo, human. The settings on record: for Amount excreted in urine (0–144 h) / Amount excreted total, urine and faeces (0–144 h) / Amount excreted in faeces (0–144 h): % of administered dose; for Plasma exposure: relative AUC0-168h (% of AUC0-168h from total 14C): 0-168 h. As to the method:
Metabolite profiling was divided into two parts: metabolite screening and identification, and metabolite quantification. During the first part, inter-patient pooled samples were analysed to screen for the presence of metabolites. Afterwards, individual patient samples or within-patient pooled samples (depending on the matrix) were analysed and metabolites found during the screening phase were quantified. Plasma, urine and faeces samples were selected both for screening and quantification. Three time points were selected for screening of plasma samples. Besides the pre-dose, a sample around the tmax was chosen, because these samples contained the highest amount of radioactivity. It was also of interest to select a sample in which the amount of radioactivity was much higher than the amount of parent compound, because this is indicative of the presence of metabolites. Consequently, 4 h and 48 h were selected and screened for metabolites. Individual patient samples from 0 […] and 168 h were analysed and metabolites in these samples were quantified. All urine samples were pooled within patients, and afterwards these samples were pooled between patients. […] The same procedure was applied for faeces samples. Again, 24 h-interval pools were made, first within patients and then between patients. The latter were used for metabolite screening, whereas the first were analysed afterwards, during the quantification step. […] Plasma samples (pre-dose, 4 h and 48 h) were pooled by equal volumes. In addition, the individual samples (pre-dose, 4 h, 12 h, 24 h, 48 h, 72 h and 168 h) were analysed. Plasma samples were extracted once with acetonitrile-methanol (50:50, v/v). […] An aliquot of the clear supernatant was analysed for total radioactivity to determine extraction efficiency. The remaining supernatant was used for analysis by LC-MS^n in combination with off-line LSC (LC-LSC-MS^n). Urine samples were first pooled within patients. […] These samples were analysed without pre-treatment. […] Faeces homogenate samples were extracted once with 0.1% formic acid in acetonitrile. […] An aliquot of the clear supernatant was analysed for total radioactivity to determine extraction recovery. The remaining supernatant was used for LC-LSC-MS^n analysis. Samples were analysed by LC (Shimadzu, Kyoto, Japan) coupled to a linear ion trap mass spectrometer (Thermo Electron, Waltham, MA, USA) in combination with off-line LSC (LC-Linear Ion Trap LTQ XL Mass Spectrometry (MS)-LSC). To separate known and unknown metabolites, an HPLC gradient was applied. A flow rate of 1 mL/min was maintained during the following 50-min gradient: starting at 10%B and increasing to 36.25%B over 35 min, then to 90%B in 12 min. This was held for 2 min and then it was reverted back to the initial conditions of 10%B at 49 min. Mobile phase A consisted of 20 mM ammonium acetate in water and mobile phase B consisted of 0.1% formic acid in acetonitrile. Structural information on niraparib metabolites was obtained using Data Dependent Acquisition. Accurate mass measurements were performed to confirm the chemical structures of the metabolites. These measurements were performed on an Ultimate 3000 LC (Dionex) coupled to an LTQ Orbitrap XL MS (Thermo Electron, Waltham). The same gradient composition was applied. […] The metabolite profiles of ^14C-niraparib-derived radioactivity were determined for selected aliquots of extracts of plasma, urine and faecal homogenates using LC-MS/MS, fractionation and off-line LSC. After pre-treatment, samples were injected onto a Phenomenex Synergi Hydro-RP (250 × 4.6 mm, 4 μm) column. Data Dependent Acquisition was applied, causing the detection and fragmentation of the most abundant ions. Besides this, a parent list with possible metabolites was constructed, meaning that apart from the most abundant ions, also the ones with the masses in this parent list were further fragmentised for which MS^2 and MS^3 spectra were obtained. […]

Series [2] in a line: Plasma pharmacokinetics of niraparib and M1 by validated LC-MS/MS after a single oral 300 mg dose of 14C-niraparib. The settings on record: human; for AUC(0-inf): read-out: AUC0-inf (mean); for AUC(0-t): read-out: AUC0-last (mean); for half-life: read-out: t1/2 (mean) (converted); for Tmax: read-out: tmax (median). In kind it is in vivo. As to the method:
Dose reductions were allowed twice. […] All patients provided written informed consent. Blood sampling was done at the following time points: pre-dose, 1, 1.5, 2, 3, 4, 6, 9 and 12 hours (h) after administration and in the morning of Day 2, 3, 4, 5, 8, 11, 15 and 22. For each time point, a 10 mL K2EDTA blood collection tube was used (Vacutainer®, Becton, Dickinson and Company, Franklin Lakes, NJ, USA) and blood was drawn via a peripheral line. […] Separate aliquots were made for radioactivity measurements as well as LC-MS/MS and metabolite profiling experiments. All samples were stored at −80 °C. […] Gradient elution was applied using 20 mM ammonium acetate in water (mobile phase A) and 0.1% formic acid in acetonitrile-methanol (50:50, v/v; mobile phase B). […] Quality control samples were prepared and analysed together with the study samples. […] Analysis was done by a non-compartmental method using WinNonlin Phoenix Version 6.2.1 or higher (Pharsight Corporation, St. Louis, Missouri, USA).

The procedure of series [3]:
Six evaluable patients were enrolled in this open-label mass balance clinical study (ClinicalTrials.gov identifier NCT02476552) and were admitted to the study center for at least 10 days, with the 11th day being optional. […] From the moment of administration, all urine and faeces were collected. […] Dose reductions were allowed twice. The study was conducted in conformance with the International Conference on Harmonisation (ICH) guidelines for Good Clinical Practice (GCP) and in accordance with the Declaration of Helsinki. The protocol was approved by the Netherlands Cancer Institute Independent Ethics Committee. All patients provided written informed consent.
For the purpose of the mass balance study and metabolite profiling, urine and faecal samples were collected. Urine was collected at pre-determined intervals: pre-dose, 0–12 h, 12–24 h, 24–36 h and 36–48 h after administration. From Day 3 onwards, urine was collected over periods of 24 h. Urine was stored in polyethylene containers at 2–8 °C for the duration of the collection period. After each collection period, urine samples were mixed thoroughly, weighed, portioned into aliquots, and then frozen at ≤ − 70 °C. Separate aliquots were made in polypropylene tubes for analysis by LC-MS/MS, metabolite profiling and TRA analysis by LSC.
Faeces were collected and weighted per stool. Sample pre-treatment involved diluting and homogenising the faeces by adding water (1:3 w/v; B. Braun). A T25 basic Ultra Turrax (IKA Works, Staufen, Germany) was used to homogenise the samples before aliquoting. Urine and faeces sample collection occurred according to the following requirements: • If the total radioactivity in the Day 14 faecal/urine sample is detected to be higher than 0.1% and the total recovery of accumulative radioactivity ≤85% (faeces and urine) of the radioactivity of the dose given, faecal/urine samples will be collected every 24 h through Day 21. • If the total radioactivity in the Day 21 faecal/urine sample is detected to be higher than 0.1% and the total recovery of accumulative radioactivity ≤85% (faeces and urine), faecal/urine samples will continue to be collected every 24 h. • Faecal/urine sample collection will stop after Day 21, if the recovered radioactivity is below 1% (per 24 h) for the two consecutive days prior to Day 21 (Day 19 and Day 20). If this is not the case, collection will stop as soon as the recovered radioactivity is below 1% (per 24 h) for two consecutive days after Day 21.
TRA analysis was performed on a Liquid Scintillation Counter Tri-Carp 2910 (PerkinElmer, Groningen, The Netherlands). Aliquots of 200 μL of whole blood, plasma and faeces (all in duplicate), and 1 mL of urine (in singular) were transferred to scintillation vials. Whole blood and faecal samples needed to be moderately translucent and colourless. Therefore, 2-propanol (1 mL) was added to faecal samples to dissolve fibres, NaEDTA (0.1 mL) was added to whole blood to reduce foaming, and Solvable™ (1 mL) was added to both matrices to solubilise tissue. Hydrogen peroxide 30% (0.4 mL to faeces and 0.5 mL to whole blood) was added to reduce colour intensity. These samples were placed in a water bath (at least 40 °C; GF1086, Salm en Kipp, Breukelen, The Netherlands) to stimulate the chemical processes. Finally, 10 mL of Ultima Gold™ Cocktail (PerkinElmer) was added and the samples were analysed, either for 60 min or until the 2-sigma error was less than or equal to 5%, whichever came first. A scintillant blank was used to provide as a background sample.

Series [4] can be described thus: Safety assessment (NCI CTCAE) in the mass balance study.
Text: The National Cancer Institute Common Terminology Criteria for Adverse Events (NCI CTCAE) grading system was used to describe the severity of the adverse events (AEs) that occurred. Haematology, blood chemistry and vital signs were also part of the safety assessment.
The conditions of series [5]: population pharmacokinetic analysis, all the patients in NOVA study; cited from earlier work.
The conditions of series [6]: daily dose of 300 mg; cited from earlier work.
Series [7] has as its system recurrent, platinum sensitive, ovarian, fallopian tube, or primary peritoneal cancer. The settings on record: adult patients in complete or partial response to platinum-based chemotherapy; cited from earlier work.
The mark [8] stands for this setting: plasma, single oral dose 300 mg 14C-niraparib, n = 6.
Setting [9] is: % of administered dose, up to 144 h.
[10] abbreviates: % of administered radioactive dose, through 504 h post-dose.

Where two headings read alike, the source gives them in different places. Bounds are passed on as bounds.

One may read the Cmax as the maximum level reached in the sampled fluid or tissue. The term Tmax denotes the time from dosing to the highest level.

Turning to M1-glucuronide [Compound M10], in series [1], the “Amount excreted in urine (0–144 h)” value turned out to be 6.2% and the “Plasma exposure: relative AUC0-168h (% of AUC0-168h from total 14C)” value worked out at 55.7%.

As to M1-glucuronide [M10 (3)], in series [1], the “Amount excreted in urine (0–144 h)” value is given as “<LLOQ” and the “Plasma exposure: relative AUC0-168h (% of AUC0-168h from total 14C)” value came to 22.9%.

In the case of M1-glucuronide [M10 (2)], in series [1], the “Amount excreted in urine (0–144 h)” value was 6.2%; the “Amount excreted total, urine and faeces (0–144 h)” value (“Amount excreted total” for short) was found to be 6.2%; the “Plasma exposure: relative AUC0-168h (% of AUC0-168h from total 14C)” value amounted to 26.8%.

For `O=C(O)c1cccc2cn(-c3ccc([C@@H]4CCCNC4)cc3)nc12` [Compound M1, Amide hydrolysed niraparib], in series [2] (setting [8]), the concentration peaked (Cmax) at 476 ng/mL, the AUC(0-inf) turned out to be 41200 ng·h/mL, the AUC(0-t) worked out at 40800 ng·h/mL and the half-life was 78.4 h. In addition, the Tmax in series [2] (setting [8]) is 9.02 h. For the same compound, in series [1], the “Amount excreted in urine (0–144 h)” value was determined as 20.0%; the “Amount excreted total” value is 22.4%. In addition, in series [1] (listed as M1 (4)), the “Amount excreted in faeces (0–144 h)” value turned out to be 2.4%, the “Amount excreted in urine (0–144 h)” value is recorded as 20% and the “Plasma exposure: relative AUC0-168h (% of AUC0-168h from total 14C)” value worked out at 9.3%.

As for `COC(=O)c1cccc2cn(-c3ccc([C@@H]4CCCNC4)cc3)nc12` [Methylated M1 (7), Methylated M1], in series [1], the “Amount excreted in urine (0–144 h)” value was “not detected” and the “Plasma exposure: relative AUC0-168h (% of AUC0-168h from total 14C)” value is recorded as 2.5%.

Regarding M1-glucuronide [M10 (1)], in series [1], the “Amount excreted in urine (0–144 h)” value was “<LLOQ” and the “Plasma exposure: relative AUC0-168h (% of AUC0-168h from total 14C)” value turned out to be 6.0%.

Turning to `NC(=O)c1cccc2cn(-c3ccc([C@@H]4CCCNC4)cc3)nc12` [niraparib, 2-{4-[(3S)-piperidin-3-yl]phenyl}-2H-indazole-7-carboxamide], in series [3] (setting [9]), the “Total radioactivity recovered in excreta (urine and faeces)” value came out at 71.6%; the “Total radioactivity recovered in faeces” value is reported as 31.6%; the “Total radioactivity recovered in urine” value is listed as 40%. In series [3] (setting [10]), the “Mean total radioactivity recovered in excreta (urine and faeces)” value is recorded as 86.3%; the “Mean total radioactivity recovered in faeces” value is given as 38.8%; the “Mean total radioactivity recovered in urine” value is 47.5%. For the same compound, in series [3] (within the first 4 days (96 h) after dosing), the “Administered dose recovered in excreta” value is listed as “over 50%”. Further, the “Grade of AEs considered likely to be related to study treatment” value in series [4] (NCI CTCAE) is at most 2 grade. For the same compound, the “TEAEs leading to study drug discontinuation or death” value in series [4] (six patients) is “no TEAEs led to study drug discontinuation or death”. Also, the “Total number of adverse events reported” value in series [4] (six patients, single oral dose 300 mg) turned out to be 21. For the same compound, the “apparent Vd/F” value in series [5] was 1074 L. Also, the tolerability result in series [6] was “well tolerated”. The Vd/F in series [2] (in vivo, oral, cancer patients, across the clinical studies, read-out: apparent Vd/F, collective conclusion) is at least 1000 L. In addition, in series [2] (setting [8]), the Cmax stood at 540 ng/mL, the AUC(0-inf) stood at 18500 ng·h/mL, the AUC(0-t) is 18400 ng·h/mL and the half-life is 87.4 h. Further, the Tmax in series [2] (setting [8]) stood at 2.49 h. Further, in series [2] (plasma, single oral dose 300 mg 14C-niraparib, n = 6, read-out: Vd/F (mean)), the Vd/F came to 2170 L. Further, in series [1] (listed as Niraparib (5)), the “Amount excreted in faeces (0–144 h)” value worked out at 18.7%; the “Amount excreted in urine (0–144 h)” value is given as 10.5%; the “Amount excreted total” value was found to be 29.2%. In series [1] (listed as niraparib (5)), the “Amount excreted in faeces (0–144 h)” value worked out at 18.7% and the “Amount excreted in urine (0–144 h)” value is given as 10.5%. In addition, the “progression-free survival (PFS)” value in series [7] is given as “met its primary endpoint of improving progression-free survival”.
